Data on 27 molecules can be found in patent publication US8969335B2, “Benzonitrile derivatives as kinase inhibitors” (MERCK PATENT GmbH, priority 2011, dated 2015).

Molecules are shown by their SMILES. Read-outs that look alike come from different tables or passages of the source.

The target in assay [1] is TANK binding kinase (TBK1) (Homo sapiens (Human), UniProt Q9UHD2). The assay can be described thus: TBK1 enzyme assay (384-well flashplate kinase assay). The assay is classed as biochemical. To be noted: 0.6 nM TBK1, 10 μM ATP, 30° C., 120 min.
Chain of TANK binding kinase (TBK1) (Q9UHD2 whole entry): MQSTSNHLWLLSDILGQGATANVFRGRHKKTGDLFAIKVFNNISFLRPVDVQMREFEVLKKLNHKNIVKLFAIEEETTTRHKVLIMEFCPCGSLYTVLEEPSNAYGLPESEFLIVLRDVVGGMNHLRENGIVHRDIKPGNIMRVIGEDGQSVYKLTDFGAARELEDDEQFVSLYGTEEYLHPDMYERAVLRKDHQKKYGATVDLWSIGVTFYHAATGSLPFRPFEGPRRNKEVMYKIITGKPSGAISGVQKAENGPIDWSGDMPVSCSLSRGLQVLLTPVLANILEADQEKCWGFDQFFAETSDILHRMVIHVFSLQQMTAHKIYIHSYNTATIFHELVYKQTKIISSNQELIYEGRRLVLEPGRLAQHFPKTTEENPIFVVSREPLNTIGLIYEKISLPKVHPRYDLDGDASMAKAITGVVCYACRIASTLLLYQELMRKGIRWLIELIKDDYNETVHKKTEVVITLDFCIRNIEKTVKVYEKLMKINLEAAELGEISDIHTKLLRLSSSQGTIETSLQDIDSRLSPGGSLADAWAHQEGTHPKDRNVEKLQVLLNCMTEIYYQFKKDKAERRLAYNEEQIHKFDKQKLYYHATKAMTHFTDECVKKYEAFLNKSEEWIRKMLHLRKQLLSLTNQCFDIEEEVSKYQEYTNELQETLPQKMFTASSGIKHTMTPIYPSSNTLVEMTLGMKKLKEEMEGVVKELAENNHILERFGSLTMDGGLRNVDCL
Method: Test for the Inhibition of TBK1
0.6 nM TANK binding kinase (TBK1), 800 nM biotinylated MELK-derived peptide (Biotin-Ah-Ah-[sequence]) and 10 μM ATP (spiked with 0.25 μCi of ^33P-ATP/well) are incubated at 30° C. for 120 min in a total volume of 50 μl (10 mM MOPS, 10 mM Mg acetate, 0.1 mM EGTA, 1 mM DTT, 0.02% of Brij35, 0.1% of BSA, pH 7.5) with or without test compound. The reaction is stopped with 25 μl of 200 mM EDTA. After 30 min at room temperature, the liquid is removed, and each well is washed three times with 100 μl of 0.9% sodium chloride solution. Non-specific reaction is measured in the presence of 100 nM staurosporine. The radioactivity is measured in a Topcount (PerkinElmer).
The subject of assay [2] is TBK1 + IKKε (phospho-IRF3 @ Ser 386, MDA-MB-468 cells). The experiment in a line: TBK1 + IKKε cell assay: dose response inhibition of phospho-IRF3 @ Ser 386 in MDA-MB-468 cells. The conditions noted are these: Homo sapiens. Format: cell-based.
Method: Day 1: MDA-MB-468 cells are detached using HyQ-Tase, counted and sown into a 384-well plate with TC surface and clear bottom in a density of 10,000 cells per well in a total volume of 35 μl of complete medium. Alternatively, the cells are sown directly from frozen glass vials.
Day 2: The cells are pre-treated with inhibitor compounds for 1 h prior to poly(I:C) stimulation. After incubation for 2 h with poly(I:C), the cells are fixed in (para)formaldehyde (PFA) and permeabilised using methanol (MeOH). The cells are then blocked and incubated with an anti-pIRF3 antibody at 4° C. overnight.
Day 3: The primary antibody is washed off, an AlexaFluor488-conjugated secondary antibody is added, the cells are contrast-stained with propidium iodide, followed by image acquisition on an IMX ultra-high content reader.
Another assay addresses IKKε (Homo sapiens (Human), UniProt Q14164). The experiment in a line: IKKε kinase assay (384-well flashplate assay). The assay is classed as biochemical. To be noted: 1 nM IKKε, 10 μM ATP, 30° C., 2 hours; read-out: IKKε enzyme assay IC50. The method, then:
Test for the Inhibition of IKKε
IKKε—Kinase Assay (IKKepsilon)
The kinase assay is performed as 384-well flashplate assay (for example for Topcount measurement).
1 nM IKKε, 800 nM biotinylated IκBα(19-42) peptide (Biotin-C6-C6-[…]) and 10 μM ATP (spiked with 0.3 μCi of ^33P-ATP/well) are incubated at 30° C. for 2 hours in a total volume of 50 μl (10 mM MOPS, 10 mM Mg acetate, 0.1 mM EGTA, 1 mM dithiothreitol, 0.02% of Brij35, 0.1% of BSA, 0.1% of BioStab, pH 7.5) with or without test compound. The reaction is stopped using 25 μl of 200 mM EDTA. After 30 min at room temperature, the liquid is removed, and each well is washed three times with 100 μl of 0.9% sodium chloride solution. Non-specific reaction is determined in the presence of 3 μM MSC2119074 (BX-795). The radioactivity is measured using a Topcount (PerkinElmer). The results (for example IC50 values) are calculated using program tools provided by the IT Department (for example AssayExplorer, Symyx).

The mark [3] stands for this setting: poly(I:C) stimulation, nuclear phospho-IRF3, read-out: TBK1 + IKKε cell assay IC50.

Chain of IKKε (Q14164 whole entry): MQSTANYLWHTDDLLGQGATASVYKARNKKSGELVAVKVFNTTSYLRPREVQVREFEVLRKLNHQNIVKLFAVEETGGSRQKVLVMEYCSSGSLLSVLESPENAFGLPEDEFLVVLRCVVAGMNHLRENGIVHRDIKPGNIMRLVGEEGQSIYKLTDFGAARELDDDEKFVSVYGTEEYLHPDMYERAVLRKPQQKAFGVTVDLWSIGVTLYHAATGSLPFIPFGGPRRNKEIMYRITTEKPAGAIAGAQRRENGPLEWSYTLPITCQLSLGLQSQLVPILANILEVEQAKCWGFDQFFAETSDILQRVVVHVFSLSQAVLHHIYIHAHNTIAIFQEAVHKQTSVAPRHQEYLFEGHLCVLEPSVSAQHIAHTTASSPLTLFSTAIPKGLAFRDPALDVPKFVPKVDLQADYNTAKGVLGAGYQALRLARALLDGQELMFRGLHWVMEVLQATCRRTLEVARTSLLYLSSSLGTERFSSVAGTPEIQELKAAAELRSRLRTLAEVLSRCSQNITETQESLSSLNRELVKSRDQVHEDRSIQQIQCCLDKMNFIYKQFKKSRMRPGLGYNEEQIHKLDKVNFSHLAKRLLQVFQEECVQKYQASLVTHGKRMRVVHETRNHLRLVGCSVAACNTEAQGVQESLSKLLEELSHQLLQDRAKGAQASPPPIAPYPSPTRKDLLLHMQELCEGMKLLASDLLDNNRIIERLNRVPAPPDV

For orientation: IC50 means the midpoint of a concentration-inhibition curve. `N#Cc1cc(-c2ccnc(Nc3cnn(CCO)c3)n2)ccc1OC1CCOCC1` [Compound A75, 5-{2-[1-(2-hydroxyethyl)-1H-pyrazol-4-ylamino]pyrimidin-4-yl}-2-(tetrahydropyran-4-yloxy)benzonitrile]: the values for the IC50 (in assay [1]; in assay [2] (setting [3]); on IKKε) were 3 nM, 500 nM and 4 nM, respectively.

In the case of `Cc1cc(Nc2cc(-c3ccc(OC4CCOCC4)c(C#N)c3)ccn2)no1` [Compound A4, 5-[2-(5-Methylisoxazol-3-ylamino)pyridin-4-yl]-2-(tetrahydropyran-4-yloxy)benzonitrile], the IC50 in assay [1] stood at 34 nM; in assay [2] (setting [3]), 6600 nM; on IKKε, 38 nM.

In the case of `N#Cc1cc(-c2ccnc(Nc3ccc(N4CCOCC4)cn3)c2)ccc1OCC1CC1` [Compound A108, 2-cyclopropylmethoxy-5-[2-(5-morpholin-4-ylpyridin-2-ylamino)pyridin-4-yl]benzonitrile], the results for the IC50 (in assay [1]; in assay [2] (setting [3]); on IKKε) were 23 nM, 1200 nM and 45 nM, respectively.

`N#Cc1cc(-c2ccnc(Nc3cccc(C4CCNCC4)n3)c2)ccc1OC1CCOCC1` [Compound A91, 5-[2-(1′,2′,3′,4′,5′,6′-hexahydro-[2,4′]bipyridinyl-6-ylamino)pyridin-4-yl]-2-(tetrahydropyran-4-yloxy)benzonitrile]: the figures for the IC50 (in assay [1]; in assay [2] (setting [3]); at IKKε) were 32 nM, 2300 nM and 8 nM, respectively.

In the case of `CN(C)Cc1ccnc(Nc2cc(-c3ccc(OC4CCOCC4)c(C#N)c3)ccn2)c1` [Compound A81, 5-[2-(4-dimethyl-aminomethylpyridin-2-ylamino)pyridin-4-yl]-2-(tetrahydropyran-4-yloxy)benzonitrile], the IC50 in assay [1] was found to be 14 nM; in assay [2] (setting [3]) it was 350 nM; at IKKε, 10 nM.

For the molecule `Cn1ccc(Nc2cc(-c3ccc(OC4CCOCC4)c(C#N)c3)ccn2)n1` [Compound A5, 5-[2-(1-Methyl-1H-pyrazol-3-ylamino)pyridin-4-yl]-2-(tetrahydropyran-4-yloxy)benzonitrile], the IC50 in assay [1] amounted to 97 nM; in assay [2] (setting [3]) it was 2900 nM; on IKKε, 110 nM.

For the molecule `CN1CCC(n2cc(Nc3cc(-c4ccc(OC5CCOCC5)c(C#N)c4)ccn3)cn2)CC1` [Compound A2, 5-{2-[1-(1-Methylpiperidin-4-yl)-1H-pyrazol-4-yl-amino]pyridin-4-yl}-2-(tetrahydropyran-4-yloxy)benzonitrile], the IC50 is 83 nM in assay [1], 960 nM in assay [2] (setting [3]) and 20 nM at IKKε.

For the molecule `N#Cc1cc(-c2ccnc(Nc3cnn(CCN4CCOCC4)c3)c2)ccc1OC1CCOCC1` [Compound A22, 5-{2-[1-(2-Morpholin-4-ylethyl)-1H-pyrazol-4-ylamino]pyridin-4-yl}-2-(tetrahydropyran-4-yloxy)benzonitrile], the figures for the IC50 (in assay [1]; in assay [2] (setting [3]); on IKKε) were 100 nM, 9600 nM and 150 nM, respectively.

On to `N#Cc1cc(-c2ccnc(Nc3ccc(C4CCNCC4)nn3)c2)ccc1OC1CCOCC1` [Compound A71, 5-[2-(6-piperidin-4-ylpyridazin-3-ylamino)pyridin-4-yl]-2-(tetrahydropyran-4-yloxy)benzonitrile], for which the values for the IC50 (in assay [1]; in assay [2] (setting [3]); at IKKε) were 21 nM, 2400 nM and 6 nM, respectively.

Regarding `O=C(NCCCNc1nc(Nc2cccc(NC(=O)N3CCCC3)c2)ncc1I)c1cccs1` [BX-795, reference compound], in assay [2] (reference inhibitor range, read-out: IC50 of reference inhibitor in phospho-IRF3 cell assay), the IC50 lay within 200 to 800 nM.

As for `CC(=O)N1CCC(COc2ccc(-c3ccnc(Nc4ccc(CO)cn4)c3)cc2C#N)CC1` [Compound A115, 2-(1-acetylpiperidin-4-ylmethoxy)-5-[2-(5-hydroxymethylpyridin-2-ylamino)pyridin-4-yl]benzonitrile], the IC50 in assay [1] amounted to 1500 nM; at IKKε, 1100 nM.

Turning to `N#Cc1cc(-c2ccnc(Nc3cnn(CC(F)F)c3)n2)ccc1OC1CCOCC1` [Compound A44, 5-{2-[1-(2,2-Difluoroethyl)-1H-pyrazol-4-ylamino]pyrimidin-4-yl}-2-(tetrahydropyran-4-yloxy)benzonitrile], the IC50 in assay [1] stood at 5 nM; on IKKε, 10 nM.

Turning to `N#Cc1cc(-c2ccnc(Nc3cncc(C4=CCCCO4)n3)c2)ccc1OC1CCOCC1` [Compound A92, 5-{2-[6-(5,6-dihydro-4H-pyran-2-yl)pyrazin-2-ylamino]pyridin-4-yl}-2-(tetrahydropyran-4-yloxy)benzonitrile], the 50% inhibitory concentration (IC50) is 850 nM in assay [1] and 930 nM on IKKε.

For `N#Cc1cc(-c2ccnc(Nc3cnn(CC4CCOC4)c3)n2)ccc1OC1CCOCC1` (centres unmarked) [Compound A41, 5-{2-[1-(Tetrahydrofuran-3-ylmethyl)-1H-pyrazol-4-ylamino]pyrimidin-4-yl}-2-(tetrahydropyran-4-yloxy)benzonitrile], the half-maximal inhibitory concentration (IC50) was 12 nM in assay [1] and 25 nM at IKKε.

In the case of `N#Cc1cc(-c2ccnc(Nc3cnn(CC4CCOC4)c3)c2)ccc1OC1CCOCC1` (centres unmarked) [Compound A27, 5-{2-[1-(Tetrahydrofuran-3-ylmethyl)-1H-pyrazol-4-ylamino]pyridin-4-yl}-2-(tetrahydropyran-4-yloxy)benzonitrile], the IC50 stood at 85 nM in assay [1] and 77 nM at IKKε.

Turning to `N#Cc1cc(-c2ccnc(Nc3cn[nH]c3)c2)ccc1OCC1CC1` [Compound A104, 2-cyclopropylmethoxy-5-[2-(1H-pyrazol-4-ylamino)pyridin-4-yl]-benzonitrile], the results for the IC50 (in assay [1]; at IKKε) were 460 nM and 96 nM, respectively.

As to `N#Cc1cc(-c2ccnc(Nc3cc(N4CCOCC4)ccn3)c2)ccc1OC1CCOCC1` [Compound A82, 5-[2-(4-morpholin-4-ylpyridin-2-ylamino)pyridin-4-yl]-2-(tetrahydropyran-4-yloxy)benzonitrile], the IC50 was 230 nM in assay [1] and 150 nM on IKKε.

For `N#Cc1cc(-c2ccnc(Nc3ncccn3)c2)ccc1OC1CCOCC1` [Compound A14, 5-[2-(Pyrimidin-2-ylamino)pyridin-4-yl]-2-(tetrahydropyran-4-yloxy)benzonitrile], the IC50 in assay [1] was 670 nM; at IKKε, 1200 nM.

With `N#Cc1cc(-c2ccnc(Nc3ccc4oc(C(N)=O)cc4c3)n2)ccc1OC1CCOCC1` [Compound A42, 5-{4-[3-Cyano-4-(tetrahydropyran-4-yloxy)phenyl]pyrimidin-2-ylamino}benzofuran-2-carboxamide], the half-maximal inhibitory concentration (IC50) worked out at 10 nM in assay [1] and 15 nM at IKKε.

As to `CN1CCN(c2ccnc(Nc3cc(-c4ccc(OC5CCOCC5)c(C#N)c4)ccn3)c2)CC1` [Compound A84, 5-{2-[4-(4-methylpiperazin-1-yl)pyridin-2-ylamino]pyridin-4-yl}-2-(tetrahydropyran-4-yloxy)benzonitrile], the values for the IC50 (in assay [1]; at IKKε) were 350 nM and 210 nM, respectively.

On to `N#Cc1cc(-c2ccnc(Nc3ccc(C(F)(F)F)cn3)c2)ccc1OC1CCOCC1` [Compound A13, 2-(Tetrahydropyran-4-yloxy)-5-[2-(5-trifluoromethylpyridin-2-ylamino)pyridin-4-yl]-benzonitrile], for which the values for the IC50 (in assay [1]; at IKKε) were 310 nM and 530 nM, respectively.

`Cc1coc(Nc2nccc(-c3ccc(OC4CCOCC4)c(C#N)c3)n2)n1` [Compound A93, 5-[2-(4-methyloxazol-2-ylamino)pyrimidin-4-yl]-2-(tetrahydropyran-4-yloxy)benzonitrile]: the figures for the IC50 (in assay [1]; on IKKε) were 550 nM and 310 nM, respectively.

Take `N#Cc1cc(-c2ccnc(Nc3ccc(=O)[nH]n3)n2)ccc1OC1CCOCC1` [Compound A69, 5-[2-(6-oxo-1,6-dihydropyridazin-3-ylamino)pyrimidin-4-yl]-2-(tetrahydropyran-4-yloxy)benzonitrile]: the IC50 in assay [1] is 1600 nM; on IKKε it was 650 nM.

Regarding `N#Cc1cc(-c2ccnc(Nc3cnn(C4CCNCC4)c3)c2)ccc1OC1CCOCC1` [Compound A16, 5-[2-(1-Piperidin-4-yl-1H-pyrazol-4-ylamino)pyridin-4-yl]-2-(tetrahydropyran-4-yloxy)benzonitrile], the results for the IC50 (in assay [1]; on IKKε) were 71 nM and 7 nM, respectively.

As to `N#Cc1cc(-c2ccnc(Nc3cc(C4=CCCCO4)ccn3)c2)ccc1OC1CCOCC1` [Compound A86, 5-{2-[4-(5,6-dihydro-4H-pyran-2-yl)pyridin-2-ylamino]pyridin-4-yl}-2-(tetrahydropyran-4-yloxy)benzonitrile], the half-inhibitory concentration (IC50) was 290 nM in assay [1] and 300 nM on IKKε.

`N#Cc1cc(-c2ccnc(Nc3ccc(C(N)=O)cn3)c2)ccc1OC1CCOCC1` [Compound A37, 6-{4-[3-Cyano-4-(tetrahydropyran-4-yloxy)phenyl]pyridin-2-ylamino}nicotinamide]: the IC50 in assay [1] was determined as 32 nM; on IKKε, 21 nM.

For `N#Cc1cc(-c2ccnc(Nc3nc(C4CC4)cs3)n2)ccc1OC1CCOCC1` [Compound A87, 5-[2-(4-cyclopropylthiazol-2-ylamino)pyrimidin-4-yl]-2-(tetrahydropyran-4-yloxy)benzonitrile], the IC50 (in assay [1]; on IKKε) was 300 nM each time.
